Measurements from PMC5358917, “Mechanism of H2S Oxidation by the Dissimilatory Perchlorate-Reducing Microorganism Azospira suillum PS” (mBio, 2017).

Columns and labels:
[1] = molecular target: T1, PcrAB (perchlorate reductase) (Azospira oryzae, UniProt G8QM55); assay: steady-state turnover, Cline assay of sulfide; assay type: biochemical; settings: H2S as electron donor; 0.2 uM PcrAB; anaerobic
T1 construct: gene Dsui_0149; native PcrAB complex purified anoxically from wild-type PS cells, three-column protocol; periplasmic enzyme; with Perchlorate reductase subunit beta
T1 sequence (G8QM55 29-927): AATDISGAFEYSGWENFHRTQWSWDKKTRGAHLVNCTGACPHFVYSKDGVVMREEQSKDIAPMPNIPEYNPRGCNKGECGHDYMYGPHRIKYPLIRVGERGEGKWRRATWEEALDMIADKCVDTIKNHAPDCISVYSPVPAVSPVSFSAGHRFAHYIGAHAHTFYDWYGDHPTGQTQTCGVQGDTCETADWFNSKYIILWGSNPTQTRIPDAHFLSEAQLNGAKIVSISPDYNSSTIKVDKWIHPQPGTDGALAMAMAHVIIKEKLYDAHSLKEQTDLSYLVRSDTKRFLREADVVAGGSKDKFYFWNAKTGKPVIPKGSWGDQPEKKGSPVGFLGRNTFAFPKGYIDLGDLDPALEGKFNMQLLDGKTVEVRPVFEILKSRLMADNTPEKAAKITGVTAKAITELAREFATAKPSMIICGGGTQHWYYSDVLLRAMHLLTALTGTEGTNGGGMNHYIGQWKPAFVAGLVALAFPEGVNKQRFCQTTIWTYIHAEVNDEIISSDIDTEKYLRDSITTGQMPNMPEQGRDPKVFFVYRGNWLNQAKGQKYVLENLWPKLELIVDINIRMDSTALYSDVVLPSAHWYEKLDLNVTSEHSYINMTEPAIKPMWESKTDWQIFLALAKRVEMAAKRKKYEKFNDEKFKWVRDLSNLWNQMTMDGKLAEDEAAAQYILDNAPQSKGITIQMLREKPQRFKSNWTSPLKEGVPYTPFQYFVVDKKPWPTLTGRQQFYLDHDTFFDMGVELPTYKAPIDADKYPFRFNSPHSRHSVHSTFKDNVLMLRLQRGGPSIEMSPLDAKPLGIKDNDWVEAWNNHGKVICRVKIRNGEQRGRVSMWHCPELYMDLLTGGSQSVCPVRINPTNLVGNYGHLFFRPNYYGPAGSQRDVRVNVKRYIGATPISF
T1 sequence (G8QM54 1-333 partner): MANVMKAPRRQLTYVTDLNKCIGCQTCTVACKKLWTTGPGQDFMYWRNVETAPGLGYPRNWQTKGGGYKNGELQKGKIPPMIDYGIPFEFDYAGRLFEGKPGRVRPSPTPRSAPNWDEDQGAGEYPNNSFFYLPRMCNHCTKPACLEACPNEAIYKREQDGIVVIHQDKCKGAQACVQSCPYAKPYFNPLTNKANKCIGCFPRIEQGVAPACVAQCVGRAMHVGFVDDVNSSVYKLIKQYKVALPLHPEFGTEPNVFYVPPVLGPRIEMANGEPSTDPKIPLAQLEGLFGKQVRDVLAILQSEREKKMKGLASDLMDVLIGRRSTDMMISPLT

[2] = molecular target: T1, PcrAB (perchlorate reductase); assay: steady-state turnover, ion chromatography of perchlorate and Cline assay of sulfide; assay type: biochemical; settings: H2S as electron donor; 0.2 uM PcrAB; anaerobic

Structure (SMILES)	steady-state turnover, Cline assay of sulfide [1]	steady-state turnover, ion chromatography of perchlorate and Cline assay of sulf [2]
O=[N+]([O-])O [nitrate]	purified PcrAB also mediated H2S oxidation coupled to nitrate reduction	–
[O-][Cl+3]([O-])([O-])O [perchlorate]	–	Our results indicated that PcrAB independently mediated PSOX
